Laboratory results: patent publication US7141553B2, “A3AR agonists for the treatment of inflammatory arthritis” (Can-Fite Biopharma Ltd. Israel, priority 2002, dated 2006)

Legend:
[1] = Repeat dose study in healthy men, plasma pharmacokinetics; assay type: in vivo, human; conditions: for Cmax: n=5
Description: In the single dose study, 15 healthy men (3 groups of 5) received a single oral dose of IB-MECA (1, 5 or 10 mg) or placebo. In each group, 1 subject received placebo. In the repeated dose study, 28 healthy men (4 groups of 7) received repeated oral doses of IB-MECA (2, 3, 4 or 5 mg) or placebo every 12 h for 7 days. In each group, 2 subjects received placebo.
In the single dose study, a solution with IB-MECA powder in 30% Cremophor RH40 (BASF) was used. In the repeated dose study, an aqueous 0.5% methylcellulose suspension (Methocel A4M Premium, The Dow Chemical Company) was used. In both studies, the study medication was taken orally as a drink, followed by 50 ml of tap water.
The following procedures were done: • Safety assesment: laboratory assessments (routine biochemistry and urinalysis), physical examination, 12-lead ECG, ambulatory ECG, pulmonary function testing (FEV1), vital signs (semi-recumbent in the single dose study; semi-recumbent and standing in the repeat dose study). Adverse events were recorded throughout both studies. • Determination of IB-MECA blood level: in the single dose study blood samples for assay of IB-MECA were taken immediately before and at 0.25, 0.5, 1, 2, 4, 8, 12, 24, and 48 h after dosing; in the repeat dose study—blood samples were taken immediately before and at 0.25, 0.5, 1, 2, 4, 8, and 12 h after dosing on Day 1, before dosing on Days 2–6, and before and at 0.25, 0.5, 1, 2, 4, 8, 12, and 24 h after dosing on Day 7.
Plasma samples were assayed for IB-MECA using LC/MS/MS. The lower limit of quantification (LLOQ) was 0.1 ng/mL. Intra-assay coefficients of variation (CV) were <5.0% and inter-assay CVs were <9.4%.
Maximum concentration (Cmax) and time to maximum concentration (tmax) were observed values. Other pharmacokinetic parameters (half-life, t^1/2; AUC; and clearance, CL/F) were calculated by non-compartmental methods using WinNonlin® software (version 3.0, Pharsight, Mountain View, Calif., US). Accumulation indices of Cmax and AUC were calculated as ratio of values at steady state (Day 7) to the values on Day 1.

[2] = system: collagen-induced arthritis; test: Collagen-induced-arthritis (CIA) model in mice; assay type: in vivo, mouse
Description: Male DBA mice, aged 10 weeks, were injected SC with 100 μl of Type II collagen 200 μg in complete Freund's adjuvant (CFA). On day 21 a booster injection of the same emulsion was administered. Mice were inspected daily for symptoms of clinical arthritis.
The inflammatory intensity, presented as joint swelling, was measured by Caliper (Mitutoyo Co., Tokyo, Japan). Histopathological sections of these decalcified whole joints were stained with hematoxylin-eosin. Slides were screened for the following arthritic characteristics: inflammatory cell infiltration, synovial cell lining hyperplasia and pannus formation. The histological assessment of the knees inflammation intensity was divided to four parameters: • 1. Lymphatic follicle like formation—graded 0–4 • 2. Inflammatory cells infiltration—graded 0–4 • 3. Synovial cells hyperplasia—graded 0–4 • 4. Pannus formation—graded 0–4 The arithmetic sum of these four parameters above all together designated-“Total Arthritic Score” (Goldenberg et al, J. Rheumatol. 1: 5–11, 1983). The white blood cell (WBC) count and the serum levels of the pro-inflammatory cytokine TMF-α served as humoral markers of the immune system activation. Tumor necrosis factor-α sera level was determined, in accordance with the manufacturer's guidelines, by ELISA kit “Quantikine M” (R&D Systems, Minneapolis, Minn., USA). 4. Statistical Analysis
Male DBA mice were treated to produce collagen-induced-arthritis as described above. Each group contained 10 animals and each experiment was conducted at least three times.
IB-MECA (10 μg/kg) was orally administered by gavage, twice daily starting at onset of clinical arthritis. The […] control received vehicle only. The inflammatory intensity in the CIA model was determined in accordance with the increase in the mice hind paw's diameter, measured by caliper (Mitotoyo, Tokyo, Japan). The mean score in each experimental group was designated as the “Clinical Score”. […]
The assessment of all pathologic findings were performed blind (by L. R-W and M. H) using semi-quantitative grading scales of 0 to 4 for the following parameters: […]

Plasma half life in mice = assay type: in vivo, mouse
[3] = 2 mg every 12 h, Day 1, mean (SD)
[4] = 2 mg every 12 h, Day 7, mean (SD)
[5] = 3 mg every 12 h, Day 1, mean (SD)
[6] = 3 mg every 12 h, Day 7, mean (SD)
[7] = 4 mg every 12 h, Day 1, mean (SD)
[8] = 4 mg every 12 h, Day 7, mean (SD)
[9] = 5 mg every 12 h, Day 1, mean (SD)
[10] = 5 mg every 12 h, Day 7, mean (SD)
[11] = repeated doses, independent of dose

CNC(=O)[C@H]1O[C@@H](n2cnc3c(NCc4cccc(I)c4)ncnc32)[C@H](O)[C@@H]1O [IB-MECA, N6-(3-iodobenzyl)-adenosine-5′-N-methyl-uronamide]
AUC (AUC(inf) on Day 1) [1, 3]: 207.4 (52.0) ng · h/mL | AUC(0–12) [1, 3]: 155.2 (39.1) ng · h/mL | CL/F [1, 3]: 10.1 (2.3) L/h | t1/2 [1, 3]: 5.52 (0.2) h | Cmax [1, 3]: 22.0 (3.3) ng/mL | tmax ([1]; 2 mg every 12 h, Day 1, median (range)): 2 (1–4) h | AUC (AUC(0–24) on Day 7) [1, 4]: 346.3 (64.0) ng · h/mL | AUC(0–12) [1, 4]: 242.4 (41.4) ng · h/mL | CL/F [1, 4]: 4.9 (0.7) L/h | t1/2 [1, 4]: 9.83 (1.2) h | Cmax [1, 4]: 30.9 (3.1) ng/mL | tmax ([1]; 2 mg every 12 h, Day 7, median (range)): 2 (1–2) h | AUC (AUC(inf) on Day 1) [1, 5]: 423.5 (27.5) ng · h/mL | AUC(0–12) [1, 5]: 304.5 (19.5) ng · h/mL | CL/F [1, 5]: 7.1 (0.5) L/h | t1/2 [1, 5]: 6.29 (1.0) h | Cmax [1, 5]: 49.3 (9.7) ng/mL | tmax ([1]; 3 mg every 12 h, Day 1, median (range)): 2 (1–2) h | AUC (AUC(0–24) on Day 7) [1, 6]: 512.1 (74.1) ng · h/mL | AUC(0–12) [1, 6]: 341.6 (38.1) ng · h/mL | CL/F [1, 6]: 5.0 (0.6) L/h | t1/2 [1, 6]: 9.25 (0.8) h | Cmax [1, 6]: 49.0 (7.9) ng/mL | tmax ([1]; 3 mg every 12 h, Day 7, median (range)): 1 (1–2) h | AUC (AUC(inf) on Day 1) [1, 7]: 400.2 (85.7) ng · h/mL | AUC(0–12) [1, 7]: 297.0 (57.2) ng · h/mL | CL/F [1, 7]: 10.4 (2.1) L/h | t1/2 [1, 7]: 5.77 (0.6) h | Cmax [1, 7]: 46.2 (11.4) ng/mL | tmax ([1]; 4 mg every 12 h, Day 1, median (range)): 2 (1–2) h | AUC (AUC(0–24) on Day 7) [1, 8]: 640.3 (73.7) ng · h/mL | AUC(0–12) [1, 8]: 458.3 (54.8) ng · h/mL | CL/F [1, 8]: 5.4 (0.7) L/h | t1/2 [1, 8]: 8.93 (0.8) h | Cmax [1, 8]: 58.1 (10.4) ng/mL | tmax ([1]; 4 mg every 12 h, Day 7, median (range)): 1 (1–2) h | AUC (AUC(inf) on Day 1) [1, 9]: 596.1 (196.6) ng · h/mL | AUC(0–12) [1, 9]: 461.6 (157.4) ng · h/mL | CL/F [1, 9]: 9.3 (3.5) L/h | t1/2 [1, 9]: 4.96 (0.3) h | Cmax [1, 9]: 63.6 (22.0) ng/mL | tmax ([1]; 5 mg every 12 h, Day 1, median (range)): 2 (1–2) h | AUC (AUC(0–24) on Day 7) [1, 10]: 818.4 (214.0) ng · h/mL | AUC(0–12) [1, 10]: 601.0 (163.6) ng · h/mL | CL/F [1, 10]: 5.4 (1.5) L/h | t1/2 [1, 10]: 9.39 (0.6) h | Cmax [1, 10]: 79.5 (24.1) ng/mL | tmax ([1]; 5 mg every 12 h, Day 7, median (range)): 2 (2–2) h | accumulation index for AUC ([1]; ratio Day 7 to Day 1): 1.1–1.6 | accumulation index for Cmax ([1]; ratio Day 7 to Day 1): 1–1.4 | tmax ([1]; repeated doses 2-5 mg every 12 h): 1 to 2 h | steady state reached by ([1]; repeated doses every 12 h): ≤ 3 days | apparent plasma clearance (CL/F) [1, 11]: 5 to 10 L/h | half-life at steady state [1, 11]: 9 to 10 h | intensity of the arthritis ([2]; 10 μg/kg orally, day 21 difference significant p<0.02): reduced throughout the experimental period | histology sections of joints ([2]; 10 μg/kg, FIG. 7C): minimal inflammatory changes | histology score ([2]; 10 μg/kg, p<0.01 vs control, FIG. 8): 1.0±0.6 | half life (Plasma half life in mice): 1.5 h
